Data published in patent US20250230165A1, “HETEROCYCLIC COMPOUNDS FOR USE IN THE TREATMENT OF CANCER” (ARTIOS PHARMA LIMITED, priority 2021, published 2025).

Molecular target: T1, Human Polθ polymerase domain (aa1820-2590) (Homo sapiens, UniProt O75417)
T1 construct: Human Polθ polymerase domain (aa1820-2590) was expressed in E. coli; made in house; host or cells: E. coli
T1 sequence (O75417 1820-2590): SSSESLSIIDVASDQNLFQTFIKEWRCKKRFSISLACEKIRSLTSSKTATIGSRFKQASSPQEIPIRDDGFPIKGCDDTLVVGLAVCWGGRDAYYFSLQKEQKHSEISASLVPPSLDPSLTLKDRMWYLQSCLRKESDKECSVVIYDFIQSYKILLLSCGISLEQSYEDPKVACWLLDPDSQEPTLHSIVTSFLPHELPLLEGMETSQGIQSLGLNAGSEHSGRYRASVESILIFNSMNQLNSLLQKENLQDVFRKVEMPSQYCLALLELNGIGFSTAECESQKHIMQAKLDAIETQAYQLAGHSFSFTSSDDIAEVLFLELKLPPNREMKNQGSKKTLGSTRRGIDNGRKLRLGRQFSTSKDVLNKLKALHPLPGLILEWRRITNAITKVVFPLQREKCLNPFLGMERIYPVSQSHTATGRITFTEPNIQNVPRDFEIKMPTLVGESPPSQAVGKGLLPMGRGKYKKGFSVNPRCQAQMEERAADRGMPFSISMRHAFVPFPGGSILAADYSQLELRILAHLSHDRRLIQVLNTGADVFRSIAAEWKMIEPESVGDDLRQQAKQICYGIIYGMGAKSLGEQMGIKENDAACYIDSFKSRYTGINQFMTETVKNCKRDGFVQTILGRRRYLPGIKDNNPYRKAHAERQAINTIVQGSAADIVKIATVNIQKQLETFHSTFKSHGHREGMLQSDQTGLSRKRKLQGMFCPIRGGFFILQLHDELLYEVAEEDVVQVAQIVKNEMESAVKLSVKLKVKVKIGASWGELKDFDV
Experiment: Polθ Polymerase Domain Kinact/KI Assay (PicoGreen)
Format: biochemical
Settings: 0.8 nM Polθ, 100 nM DNA substrate, kobs vs [I] fit for 2-step covalent inhibitor
Procedure, shortened: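 PicoGreen fluorescence read-out of primer extension; progress curves per inhibitor concentration fitted for kobs, then kobs vs [I] fitted to a two-step covalent model to give Kinact and KI. Conditions: 0.8 nM enzyme, 100 nM DNA substrate, […].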

| Structure (SMILES) | Kinact/Kl [M⁻¹ s⁻¹] |
| --- | --- |
| C=CC(=O)N1CCC[C@H]1c1noc(CN2C[C@H]3CC(=O)N(c4cc(C(F)(F)F)cc(C)n4)[C@@H]3C(=O)N(C)c3cccc(C)c32)n1 [Example 269, (3aR,11aS)-5-((3-((S)-1-acryloylpyrrolidin-2-yl)-1,2,4-oxadiazol-5-yl)methyl)-6,10-dimethyl-1-(6-methyl-4-(trifluoromethyl)pyridin-2-yl)-1,3a,4,5,10,11a-hexahydro-2H-benzo[b]pyrrolo[2,3-f][1,4]diazocine-2,11(3H)-dione] | 970000 |
| C=CC(=O)N1CCC[C@@H]1c1nc(CN2C[C@H]3CC(=O)N(c4cc(C(F)(F)F)cc(C)n4)[C@@H]3C(=O)N(C)c3cccc(C)c32)no1 [Example 270, (3aR,11aS)-5-((5-((R)-1-acryloylpyrrolidin-2-yl)-1,2,4-oxadiazol-3-yl)methyl)-6,10-dimethyl-1-(6-methyl-4-(trifluoromethyl)pyridin-2-yl)-1,3a,4,5,10,11a-hexahydro-2H-benzo[b]pyrrolo[2,3-f][1,4]diazocine-2,11(3H)-dione] | 110000 |
| C=CC(=O)N1CCC[C@H]1c1nc(CN2C[C@H]3CC(=O)N(c4cc(C(F)(F)F)cc(C)n4)[C@@H]3C(=O)N(C)c3cccc(C)c32)no1 [Example 271, (3aR,11aS)-5-((5-((S)-1-acryloylpyrrolidin-2-yl)-1,2,4-oxadiazol-3-yl)methyl)-6,10-dimethyl-1-(6-methyl-4-(trifluoromethyl)pyridin-2-yl)-1,3a,4,5,10,11a-hexahydro-2H-benzo[b]pyrrolo[2,3-f][1,4]diazocine-2,11(3H)-dione] | 200000 |
| C=CC(=O)N1CCC[C@@H]1c1nnc(CN2C[C@H]3CC(=O)N(c4cc(C(F)(F)F)cc(C)n4)[C@@H]3C(=O)N(C)c3cccc(C)c32)o1 [Example 272, (3aR,11aS)-5-((5-((R)-1-acryloylpyrrolidin-2-yl)-1,3,4-oxadiazol-2-yl)methyl)-6,10-dimethyl-1-(6-methyl-4-(trifluoromethyl)pyridin-2-yl)-1,3a,4,5,10,11a-hexahydro-2H-benzo[b]pyrrolo[2,3-f][1,4]diazocine-2,11(3H)-dione] | 33000 |
| C=CC(=O)N1CCC[C@H]1c1nnc(CN2C[C@H]3CC(=O)N(c4cc(C(F)(F)F)cc(C)n4)[C@@H]3C(=O)N(C)c3cccc(C)c32)o1 [Example 273, (3aR,11aS)-5-((5-((S)-1-acryloylpyrrolidin-2-yl)-1,3,4-oxadiazol-2-yl)methyl)-6,10-dimethyl-1-(6-methyl-4-(trifluoromethyl)pyridin-2-yl)-1,3a,4,5,10,11a-hexahydro-2H-benzo[b]pyrrolo[2,3-f][1,4]diazocine-2,11(3H)-dione] | 60000 |
| C=CC(=O)N1CC[C@@H]1c1nnc(CN2C[C@H]3CC(=O)N(c4cc(C(F)(F)F)cc(C)n4)[C@@H]3C(=O)N(C)c3cccc(C)c32)o1 [Example 274, (3aR,11aS)-5-((5-((R)-1-acryloylazetidin-2-yl)-1,3,4-oxadiazol-2-yl)methyl)-6,10-dimethyl-1-(6-methyl-4-(trifluoromethyl)pyridin-2-yl)-1,3a,4,5,10,11a-hexahydro-2H-benzo[b]pyrrolo[2,3-f][1,4]diazocine-2,11(3H)-dione] | 470000 |
| C=CC(=O)N1CC[C@H]1c1nnc(CN2C[C@H]3CC(=O)N(c4cc(C(F)(F)F)cc(C)n4)[C@@H]3C(=O)N(C)c3cccc(C)c32)o1 [Example 275, (3aR,11aS)-5-((5-((S)-1-acryloylazetidin-2-yl)-1,3,4-oxadiazol-2-yl)methyl)-6,10-dimethyl-1-(6-methyl-4-(trifluoromethyl)pyridin-2-yl)-1,3a,4,5,10,11a-hexahydro-2H-benzo[b]pyrrolo[2,3-f][1,4]diazocine-2,11(3H)-dione] | 800000 |
